For one data set, the system named is Beta vulgaris. To be noted: not reported; seedling emergence.
For another data set, the system named is Oryctolagus sp. To be noted: developmental; development.
A further data set concerns Oncorhynchus mykiss. To be noted: mortality.
A further data set has as its system Bibionidae. To be noted: chronic/long-term; duration: 28 days; seedling emergence.
Another data set deals with Daphnia magna. Particulars: chronic/long-term; duration: 21 days; reproduction.
Another data set relates to Typhlodromus pyri. To be noted: acute; duration: 7 days; mortality.
A further data set deals with Mus musculus. To be noted: acute; oral; mortality.
The next data set concerns Apis mellifera. To be noted: acute, mortality.

Consider one compound from EPA's ToxValDB 9.5 (doi:10.2903/j.efsa.2006.64r).

≈ marks a conversion by molar mass, not a printed value.

Consider `CC1(C)CCC(Cc2ccc(Cl)cc2)C1(O)Cn1cncn1` (stereo not given) [Metconazole], for which the NOEC in the data set with Beta vulgaris came to 96 g/ha; in the data set with Oncorhynchus mykiss (chronic/long-term, duration: 95 days), 0.00291 mg/L; with Bibionidae, 2.12 mg/L; in the data set on Daphnia magna, 0.16 mg/L; in the data set with Bird (reproductive, duration: 22 weeks), 6.19 mg/kg-day; in the data set with Tagia sp. (chronic/long-term, reproduction), 1.8 mg/kg. This compound gave an NOAEL in the data set with Oryctolagus sp. of 4 mg/kg-day. For the same compound, the LC50 in the data set on Oncorhynchus mykiss (acute, duration: 72 hours) is 2.1 µg/mL (≈ 6.57 µM); with Bird (short-term, oral, feed, mortality) it was 168 mg/kg-day; with Tagia sp. (acute, duration: 14 days, mortality) it was greater than 1000 mg/kg. In addition, in the data set on Typhlodromus pyri, the LEL worked out at 180 g/ha. Further, the LD50 was 410 mg/kg with Mus musculus; 787 mg/kg in the data set with Bird (acute, oral, unspecified, mortality); greater than 85 µg/piece in the data set on Apis mellifera (duration: 72 hours, oral, unspecified); greater than 100 µg/piece with Apis mellifera (duration: 96 hours, dermal).

What is called NOAEL is the highest tested level that showed no adverse finding.
